Reference: patent US4568687A, “N-[2-4-(1H-Imidazol-1-yl)alkyl]-arylamides and pharmaceutical compositions” (American Cyanamid Company, priority 1984, dated 1986)
Structures can show the parent of a compound that is named as a salt.

Legend:
thromboxane synthetase = biological target: T1, thromboxane synthetase (Rattus norvegicus, UniProt P49430); test: Inhibition of thromboxane (TXB2) formation in washed rat platelets, TXB2 by direct radioimmunoassay; type: cell-based, Okamoto-Aoki spontaneously hypertensive rats (SHR); settings: 10 min; Dose 10^-4 (unit inferred); SHR platelet suspension, 10 minutes at 37° C.
T1 construct: The platelets were isolated by centrifuging the PRP for 10 minutes; endogenous in cells; host or cells: washed platelets from arterial blood of Okamoto-Aoki spontaneously hypertensive rats (rats from Taconic Farms)
T1 sequence (P49430 1-533): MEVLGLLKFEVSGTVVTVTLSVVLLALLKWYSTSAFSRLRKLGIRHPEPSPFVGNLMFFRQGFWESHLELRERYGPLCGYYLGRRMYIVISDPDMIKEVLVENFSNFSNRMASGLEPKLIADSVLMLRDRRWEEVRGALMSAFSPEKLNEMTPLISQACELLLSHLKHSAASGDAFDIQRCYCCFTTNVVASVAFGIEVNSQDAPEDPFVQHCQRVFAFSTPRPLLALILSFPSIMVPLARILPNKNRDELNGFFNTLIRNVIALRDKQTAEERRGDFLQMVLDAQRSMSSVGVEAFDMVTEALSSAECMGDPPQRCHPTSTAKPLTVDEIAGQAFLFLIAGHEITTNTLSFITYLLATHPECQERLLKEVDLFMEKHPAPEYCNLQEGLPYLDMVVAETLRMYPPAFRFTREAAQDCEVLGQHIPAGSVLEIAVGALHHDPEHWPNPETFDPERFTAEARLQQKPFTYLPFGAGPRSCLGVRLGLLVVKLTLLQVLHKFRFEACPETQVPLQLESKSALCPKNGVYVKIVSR
Experimental: Under urethan anesthesia, […] of arterial blood was collected in one ml. of 3.2% sodium citrate in a polystyrene tube from Okamoto-Aoki spontaneously hypertensive rats (SHR) (Taconic Farms, Germantown, NY) between 19 and 24 weeks in age. The blood was diluted with 3 ml. cold saline and centrifuged at room temperature for 15 minutes at 460×g. The platelet rich plasma (PRP) was separated. The platelets were isolated by centrifuging the PRP for 10 minutes at 1060×g and were washed in 4 ml. cold oxygenated Krebs phosphate buffer, pH 7.4. The chilled patelets recovered from centrifuging at 800×g for 10 minutes were resuspended in oxygenated Krebs phosphate buffer and diluted to contain 4.5-6.0×10^4 platelets/μl.
The inhibition of thromboxane (TX) formation was studied by determining the […] of thromboxane B2 (TXB2), the stable hydrolysis product of TXA2. Assay samples, prepared on ice, contained 200 μl platelet suspension, 50 μl saline, and 50 μl vehicle or drug under study (OKY-1581, UK-37248-01, 1-benzylimidazole, or indomethacin). The samples were incubated for 10 minutes at 37° C. in a metabolic shaker. The reaction was terminated by immersing the tubes in an ice bath and adding 50 μl of 0.5M citric acid. The samples were centrifuged for 10 minutes in a refrigerated centrifuge and the supernatants thus obtained were decanted and stored at -20° C. The TXB2 content for each sample was determined by a direct radioimmunoassay (RIA) utilizing a TXB2 specific RIA kit purchased from New England Nuclear, Boston, MA and expressed as pg TXB2 formed minute^-1 sample^-1, from which the percent inhibition of TXB2 formation was calculated.

[1] = tested on: spontaneously hypertensive rats of the Okamoto strain; test: Hypotensive activity: mean arterial blood pressure (MABP) in spontaneously hypertensive rats, method of Chan and Poorvin; type: in vivo; settings: gavage, 100 mg/kg or less, two doses 24 hours apart, sodium chloride loading; 28 hours after initial dose; average of 1-4 rats; initial average 160±1.5 mm; active if ≤116 (1 rat), ≤122 (2 rats), ≤128 (3 rats)
Experimental: The novel compounds of the present invention are also active hypotensive agents and were tested for hypotensive activity by the method of P. S. Chan and D. Poorvin, Clinical and Experimental Hypertension, 1 (6), 817-830 (1979). Male, 16 week old, spontaneously hypertensive rats of the Okamoto strain, from Taconic Farms, Germantown, N.Y. having an average mean arterial blood pressure of 160±1.5 mm of mercury are used in the test. […] A rat is dosed by gavage with a test compound, suspended in 2% pre-boiled starch at a concentration of 50 mg/ml, at a dose of 100 mg/kg of body weight or less, with 0.9% sodium chloride loading at a dose of 25 ml/kg of body weight. A second identical dose of the test compound, without sodium chloride loading is given 24 hours later. At 28 hours after the initial dose, the mean arterial blood pressure (MABP) is measured by the method of Chan and Poorvin vide supra. The procedure is repeated in a second and third rat when necessary. Based on the data obtained and using the three-stage "sequential probability ratio test" statistical method, the criteria for activity or retest are as follows:
If the blood pressure in the first rat is ≤116 mm mercury the compound is considered active. If the blood pressure is between […], a second rat is used. If the average blood pressure of the first and second rats is ≤122 mm the compound is considered active. If the average blood pressure is between 123 and 137 mm, a third rat is used. If the average blood pressure of the three rats is ≤128 mm the compound is considered active. The results of this test on representative compounds of the present invention appear in Table II below.

Row | SMILES | inhibition at 100 µM (thromboxane synthetase) [%] | MABP/mm Hg [1] [mm Hg]
1 | C=CCNc1ccc(Cl)cc1C(=O)NCCCn1ccnc1 [2-Allylamino-5-chloro-N--[3-(1H--imidazol-1-yl)propyl]benzamide] | 95 | 124
2 | CC(CCN1C(=O)c2ccccc2C1=O)n1ccnc1 (stereo not shown) [2-[3-(1H--imidazol-1-yl)butyl]-1H--isoindole-1,3(2H)--dione] | – | 124
3 | O=C1c2ccccc2C(=O)N1CCCCn1ccnc1 [2-[4-(1H-Imidazol-1-yl)butyl]-1H-isoindole-1,3(2H)-dione] | 99 | 120
4 | O=C1c2ccccc2C(=O)N1CCCCCCn1ccnc1 [2-[6-(1H--imidazol-1-yl)hexyl]-1H--isoindole-1,3(2H)--dione] | – | 110
5 | Cc1cc(Cl)cc(C(=O)NCCCn2ccnc2)c1N [2-amino-5-chloro-3-methyl-N--[3-(1H--imidazol-1-yl)propyl]benzamide dihydrochloride salt] | 80 | 125
6 | Nc1ccc(Cl)cc1C(=O)NCCCn1ccnc1 [2-amino-5-chloro-N--[3-(1H--imidazol-1-yl)propyl]benzamide] | 96 | 113
7 | O=C(NCCCn1ccnc1)c1ccccc1-c1ccccc1 [2-phenyl-N--[3-(1H--imidazol-1-yl)propyl]benzamide] | 95 | 124
8 | CC(CCNC(=O)c1ccc(Cl)c(Cl)c1)n1ccnc1 (stereo not shown) [3,4-dichloro-N--[3-(1H--imidazol-1-yl)butyl]benzamide] | 86 | 123
9 | Cc1cn(CCCNC(=O)c2ccc(Cl)c(Cl)c2)cn1 [3,4-dichloro-N--[3-(4-methyl-1H--imidazol-1-yl)propyl]benzamide] | 90 | 116
10 | O=C(NCCCn1ccnc1)c1cccc(Cl)c1 [3-Chloro-N-[3-(1H-imidazol-1-yl)propyl]benzamide] | 75.4 | 124
11 | Cc1cn(CCCNC(=O)c2cccc(Cl)c2)cn1 [3-chloro-N--[3-(4-methyl-1H--imidazol-1-yl)propyl]benzamide] | 84 | 122
12 | O=C(NCCCn1cnc(-c2ccccc2)c1)c1ccc(Cl)cc1 [4-Chloro-N-[3-(4-phenyl-1H-imidazol-1-yl)propyl]-benzamide] | 69 | 125
13 | O=C(NCCCn1ccnc1)c1ccc(Br)cc1 [4-bromo-N--[3-(1H--imidazol-1-yl)propyl]benzamide] | 85 | 120
14 | O=C(NCCCn1ccnc1-c1ccccc1)c1ccc(Br)cc1 [4-bromo-N--[3-(2-phenyl-1H--imidazol-1-yl)propyl]benzamide, fumarate] | – | 115
15 | Cc1cn(CCCNC(=O)c2ccc(Br)cc2)cn1 [4-bromo-N--[3-(4-methyl-1H--imidazol-1-yl)propyl]benzamide] | 80 | 122
16 | O=C(NCCCn1ccnc1)c1ccc(Cl)cc1 [4-chloro-N--[3-(1H--imidazol-1-yl)propyl]benzamide] | 95 | 126
17 | Cc1nccn1CCCNC(=O)c1ccc(Cl)cc1 [4-chloro-N--[3-(2-methyl-1H--imidazol-1-yl)propyl]benzamide] | – | 121
18 | Cc1cn(CCCNC(=O)c2ccc(Cl)cc2)cn1 [4-chloro-N--[3-(4-methyl-1H--imidazol-1-yl)propyl]benzamide] | 93 | 112
19 | Cc1cn(CCCNC(=O)c2ccc(C(F)(F)F)cc2)cn1 [4-trifluoromethyl-N--[3-(4-methyl-1H--imidazol-1-yl)propyl]benzamide] | 92 | 114
20 | O=C(NCCCCn1ccnc1)c1ccc(C(F)(F)F)cc1 [4-trifluoromethyl-N--[4-(1H--imidazol-1-yl)butyl]benzamide fumarate] | 97 | 123
21 | O=C(NCCCn1ccnc1)c1cccc2ccccc12 [N--[3-(1H--imidazol-1-yl)propyl]-1-naphthalenecarboxamide] | 75 | 124
22 | O=C(NCCCn1ccnc1)c1ccc2ccccc2c1 [N--[3-(1H--imidazol-1-yl)propyl]-2-naphthalenecarboxamide] | 97 | 127
23 | Cc1ccc(CC(=O)NCCCn2ccnc2)cc1 [N--[3-(1H--imidazol-1-yl)propyl]-4-methylbenzeneacetamide, hemifumarate] | – | 109
24 | O=C(NCCCn1ccnc1)c1ccccc1 [N-[3-(1H-Imidazol-1-yl)propyl]benzamide] | 96.3 | 128
